Nine compounds from US20230031406A1, “COMPOUNDS AND COMPOSITIONS FOR TREATING CONDITIONS ASSOCIATED WITH NLRP ACTIVITY” (Novartis AG, priority 2018, published 2023) can be followed below.

Structures are written as SMILES. Read-outs that look alike come from different tables or passages of the source.

In the experiment the test system is PMA-differentiated THP-1 cells. Description: IL-1β production in PMA-differentiated THP-1 cells stimulated with gramicidin (hTHP-1 assay containing 2% fetal bovine serum; Procedures 1 and 2). Type of experiment: cell-based, human. As to conditions: 2% fetal bovine serum. Here is the method: The following protocol is suitable for testing the activity of the compounds disclosed herein. Procedure 1: IL-1β Production in PMA-Differentiated THP-1 Cells Stimulated with Gramicidin.
THP-1 cells were purchased from the American Type Culture Collection and sub-cultured according to instructions from the supplier. Cells were cultured in complete RPMI 1640 (containing 10% heat inactivated FBS, penicillin (100 units/ml) and streptomycin (100 μg/ml)), and maintained in log phase prior to experimental setup. Prior to the experiment, compounds were dissolved in dimethyl sulfoxide (DMSO) to generate a 30 mM stock. The compound stock was first pre-diluted in DMSO to 3, 0.34, 0.042 and 0.0083 mM intermediate concentrations and subsequently spotted using Echo550 liquid handler into an empty 384-well assay plate to achieve desired final concentration (e.g. 100, 33, 11, 3.7, 1.2, 0.41, 0.14, 0.046, 0.015, 0.0051, 0.0017 μM). DMSO was backfilled in the plate to achieve a final DMSO assay concentration of 0.37%. The plate was then sealed and stored at room temperature until required.
THP-1 cells were treated with PMA (Phorbol 12-myristate 13-acetate) (20 ng/ml) for 16-18 hours. On the day of the experiment the media was removed and adherent cells were detached with trypsin for 5 minutes. Cells were then harvested, washed with complete RPMI 1640, spun down, and resuspended in RPMI 1640 (containing 2% heat inactivated FBS, penicillin (100 units/ml) and streptomycin (100 μg/ml). The cells were plated in the 384-well assay plate containing the spotted compounds at a density of 50,000 cells/well (final assay volume 50 μl). Cells were incubated with compounds for 1 hour and then stimulated with gramicidin (5 μM) (Enzo) for 2 hours. Plates were then centrifuged at 340 g for 5 min. Cell free supernatant (40 μL) was collected using a 96—CHannel PlateMaster (Gilson) and the production of IL-1β was evaluated by HTRF (cisbio). The plates were incubated for 18 h at 4° C. and read using the preset HTRF program (donor emission at 620 nm, acceptor emission at 668 nm) of the SpectraMax i3x spectrophotometer (Molecular Devices, software SoftMax 6). A vehicle only control and a dose titration of CRID3 (100-0.0017 μM) were run concurrently with each experiment.
Procedure 2: IL-1β Production in PMA-Differentiated THP-1 Cells Stimulated with Gramicidin.
THP-1 cells were purchased from the American Type Culture Collection and sub-cultured according to instructions from the supplier. Prior to experiments, cells were cultured in complete RPMI 1640 (containing 10% heat inactivated FBS, penicillin (100 units/ml) and streptomycin (100 μg/ml)), and maintained in log phase prior to experimental setup. Prior to the experiment THP-1 were treated with PMA (Phorbol 12-myristate 13-acetate) (20 ng/ml) for 16-18 hours. Compounds were dissolved in dimethyl sulfoxide (DMSO) to generate a 30mM stock. On the day of the experiment the media was removed and adherent cells were detached with trypsin for 5 minutes. Cells were then harvested, washed with complete RPMI 1640, spun down, resuspended in RPMI 1640 (containing 2% heat inactivated FBS, penicillin (100 units/ml) and streptomycin (100 μg/ml). The cells were plated in a 384-well plate at a density of 50,000 cells/well (final assay volume […]). Compounds were first dissolved in assay medium to obtain a 5× top concentration of 500 μM. 10 step dilutions (1:3) were then undertaken in assay medium containing 1.67% DMSO. 5× compound solutions were added to the culture medium to achieve desired final concentration (e.g. 100, 33, 11, 3.7, 1.2, 0.41, 0.14, 0.046, 0.015, 0.0051, 0.0017 μM). Final DMSO concentration was at 0.37%. Cells were incubated with compounds for 1 hour and then stimulated with gramicidin (5 μM) (Enzo) for 2 hours. Plates were then centrifuged at 340 g for 5 min. Cell free supernatant (40 μL) was collected using a 96—CHannel PlateMaster (Gilson) and the production of IL-1β was evaluated by HTRF (cisbio). […]

[1] abbreviates: Homo sapiens, THP-1, Table B2, class symbols, read-out: hTHP-1 IC50.

On to `CCOC(=O)c1nc2c(c(NC(=O)N=S(=O)(N[Si](C)(C)C(C)(C)C)c3cnc(C(C)(C)O)s3)c1C)CCC2` (stereo not drawn) [Example 613, Ethyl 4-(3-(((tert-butyldimethylsilyl)amino)(2-(2-hydroxypropan-2-yl)thiazol-5-yl)(oxo)-l6-sulfaneylidene)ureido)-3-methyl-6,7-dihydro-5H-cyclopenta[b]pyridine-2-carboxylate], for which the concentration for half-maximal inhibition (IC50) (in general, the midpoint of a concentration-inhibition curve) (Homo sapiens, THP-1, Table B3, hTHP-1 assay, numeric values, read-out: IC50) was over 30 µM.
Consider `CN(C)Cc1ccc(S(N)(=O)=NC(=O)Nc2c3c(nc4c2CCC4(C)C)CCC3)cc1` (single isomer, unassigned) [Compound 125a, (S) or (R)-N′-((3,3-dimethyl-1,2,3,5,6,7-hexahydro-dicyclopenta[b,e]pyridin-8-yl)carbamoyl)-4-((dimethylamino)meth-yl)benzene-sulfonimidamide], for which, for the setting “Homo sapiens, THP-1, Table B1, numeric bounds, read-out: Average IC50 of compounds in hTHP-1 assay: hTHP-1 IC50”, the IC50 is over 30 µM.
As to `CC(C)n1nc(S(N)(=O)=NC(=O)Nc2c3c(nc4c2CCC4(C)C)CCC3)cc1C(C)(C)O` (single isomer, unassigned) [Compound 615a, (S) or (R)-N′-((3,3-dimethyl-1,2,3,5,6,7-hexahydrodicyclopenta [b,e]pyridin-8-yl)carbamoyl)-5-(2-hydroxypropan-2-yl)-1-isopropyl-1H-pyrazole-3-sulfonimidamide], the concentration for half-maximal inhibition (IC50) (Homo sapiens, THP-1, Table B2, numeric bounds, read-out: hTHP-1 IC50) was over 30 µM.
As for `CC(C)(O)c1sc(S(N)(=O)=NC(=O)Nc2c3c(nc4c2CCC4)CCC3)cc1Cl` (stereo not drawn) [Compound 688, 4-Chloro-N′-((1,2,3,5,6,7-hexahydrodicyclopenta[b, e]pyridin-8-yl)carbamoyl)-5-(2-hydroxypropan-2-yl)thiophene-2-sulfonimidamide], the half-maximal inhibitory concentration (IC50) under setting [1] was 1 to 5 µM.
In the case of `CCn1nc(S(N)(=O)=NC(=O)Nc2c3c(nc4c2CCC4(C)C)CCC3)cc1CO` (single isomer, unassigned) [Example 726, (R) or (S)-N′-((3,3-dimethyl-1,2,3,5,6,7-hexahydrodicyclopenta[b,e]pyridin-8-yl)carbamoyl)-1-ethyl-5-(hydroxymethyl)-1H-pyrazole-3-sulfonimidamide], for the setting “Homo sapiens, THP-1, Table B3, hTHP-1 assay, class symbols, read-out: IC50”, the IC50 lay in the range of 0.2 to 1 µM.
As to `CC(C)(O)c1cc(S(N)(=O)=NC(=O)Nc2c3c(nc4c2CCC4(C)C)CCC3)nn1-c1ccccc1` (stereo not drawn) [Compound 663, N′-((3,3-dimethyl-1,2,3,5,6,7-hexahydrodicyclopenta[b,e]pyridin-8-yl)carbamoyl)-5-(2-hydroxypropan-2-yl)-1-phenyl-1H-pyrazole-3-sulfonimidamide], the IC50 under setting [1] is 1 to 5 µM.
The same measure, in the same setting: the same measure for `Cc1nc2c(c(NC(=O)N=S(N)(=O)c3cc(C(C)(C)O)cs3)c1C(C)C)CCC2` (single isomer, unassigned) [Compound 622b, (R) or (S)-4-(2-Hydroxypropan-2-yl)-N′-((3-isopropyl-2-methyl-6,7-dihydro-5H-cyclopenta[b]pyridin-4-yl)carbamoyl) thiophene-2-sulfonimidamide]: 5 to 30 µM.
Take `CC1(C)CCc2c1nc1c(c2NC(=O)N=S(N)(=O)c2sc(C(C)(O)CO)cc2F)CCC1` (single isomer, unassigned) [Compound 699c, (R, S) and (S, S) or (S, R) and (R, R)-5-(1,2-Dihydroxypropan-2-yl)-N′-((3,3-dimethyl-1,2,3,5,6,7-hexahydrodicyclopenta [b,e]pyridin-8-yl)carbamoyl)-3-fluorotliophene-2-sulfonimidamide]: the half-inhibitory concentration (IC50) (Table B2, class symbols, read-out: hTHP-1 IC50) was 5 to 30 µM.
For `CC1(C)CCc2c1nc1c(c2NC(=O)N=S(N)(=O)c2nn(C(F)F)cc2F)CCC1` (single isomer, unassigned) [Example 722, (S) or (R)-1-(difluoromethyl)-N′-((3,3-dimethyl-1,2,3,5,6,7-hexahydrodicyclopenta[b,e]pyridin-8-yl)carbamoyl)-4-fluoro-1H-pyrazole-3-sulfonimidamide], where the note is “Table B3, hTHP-1 assay, class symbols, read-out: IC50”, the IC50 lay in the range of 1 to 5 µM.
